Assays:
[1] = log P by HPLC (OECD Guideline 117), method [a] acidic range pH 2.7; type: physicochemical; conditions: for chromatographic logP: reversed-phase (RP) C18 HPLC column
Protocol: (§1) The log P values were determined in accordance with OECD Guideline 117 (EC Directive 92/69/EEC) by HPLC (high-performance liquid chromatography) using reversed-phase (RP) columns (C18), by the following methods: [a] The LC-MS determination in the acidic range is carried out at pH 2.7 with 0.1% aqueous formic acid and acetonitrile (contains 0.1% formic acid) as eluents; linear gradient from 10% acetonitrile to 95% acetonitrile. [b] LC-MS determination in the neutral range is effected at pH 7.8 with 0.001 molar aqueous ammonium hydrogencarbonate solution and acetonitrile as eluents; linear gradient from 10% acetonitrile to 95% acetonitrile. Calibration is effected using unbranched alkan-2-ones (having 3 to 16 carbon atoms) with known log P values (log P values determined on the basis of the retention times by linear interpolation between two successive alkanones).

[2] = log P by HPLC (OECD Guideline 117), method [b] neutral range pH 7.8; type: physicochemical; conditions: for chromatographic logP: reversed-phase (RP) C18 HPLC column
Protocol: as §1

Myzus persicae = Myzus persicae spray test; type: in vivo; conditions: application rate 500 g/ha, Chinese cabbage leaf discs, after 6 days; for pest or weed control at 500 g/ha: Myzus persicae, foliar, 144 h, read-out: efficacy (aphids killed)
Protocol: Myzus persicae—Spray Test Solvent: 78 parts by weight of acetone • • 1.5 parts by weight of dimethylformamide Emulsifier: alkylaryl polyglycol ether To produce a suitable active ingredient formulation, 1 part by weight of active ingredient is dissolved using the specified parts by weight of solvent and made up with water containing an emulsifier concentration of 1000 ppm until the desired concentration is attained. To produce further test concentrations, the formulation is diluted with emulsifier-containing water. Discs of Chinese cabbage leaves (Brassica pekinensis) infested by all stages of the green peach aphid (Myzus persicae) are sprayed with an active ingredient formulation of the desired concentration. After 6 days, the efficacy in % is determined. 100% means that all the aphids have been killed and 0% means that none of the aphids have been killed.

With “5-(Ethylsulphanyl)-4-methyl-2-[2-(pyridin-3-yl)-1,3-benzothiazol-6-yl]-2,4-dihydro-33H-1,2,4-triazol-3-one [compound 52]” the “logP[a]” value [1] was 2.84 and the “logP[b]” value [2] was 2.97.
For `Ic1ccc2nc(-c3cccnc3)sc2c1` [I-a-2, 6-Iodo-2-(pyridin-3-yl)-1,3-benzothiazole], the chromatographic logP [1] was 3.37 and the chromatographic logP [2] was 3.39.
For `CC1(C)OB(c2ccc3nc(-c4cccnc4)sc3c2)OC1(C)C` [I-h-1, 2-(Pyridin-3-yl)-6-(4,4,5,5-tetramethyl-1,3,2-dioxaborolan-2-yl)-1,3-benzothiazole], the chromatographic logP [1] was 4.03 and the chromatographic logP [2] was 4.14.
With `c1ccc(-c2ccc3nc(-c4cccnc4)sc3c2)cc1` [compound 1] the “logP[a]” value [1] was 3.7 and the “logP[b]” value [2] was 3.87.
In the case of `Fc1ccccc1-c1ccc2nc(-c3cccnc3)sc2c1` [compound 5], the “logP[a]” value [1] is reported as 3.7 and the “logP[b]” value [2] is reported as 3.78.
With `Clc1ccccc1-c1ccc2nc(-c3cccnc3)sc2c1` [compound 6] the “logP[a]” value [1] was 4.05 and the “logP[b]” value [2] was 4.2.
With `c1cncc(-c2nc3ccc(NCC4CC4)cc3s2)c1` [compound 14] the “logP[a]” value [1] was 2.5 and the “logP[b]” value [2] was 2.94.
Compound `c1cncc(-c2nc3ccc(N4CCOCC4)cc3s2)c1` [compound 15, 6-(Morpholin-4-yl)-2-(pyridin-3-yl)-1,3-benzothiazole] has a chromatographic logP [1] of 2 and a chromatographic logP [2] of 2.14.
In the case of `c1ccc(CNc2ccc3nc(-c4cccnc4)sc3c2)cc1` [compound 16], the “logP[a]” value [1] is reported as 2.91 and the “logP[b]” value [2] is reported as 3.12.
Compound `CC(Nc1ccc2nc(-c3cccnc3)sc2c1)c1ccccc1` (centres unmarked) [compound 17] has a chromatographic logP [1] of 3.23 and a chromatographic logP [2] of 3.33.
For `Cc1cc(C)c([S+]([O-])CC(F)(F)F)cc1Nc1ccc2nc(-c3cccnc3)sc2c1` (centres unmarked) [compound 19, N-{2,4-Dimethyl-5-[(2,2,2-trifluoroethyl)sulphinyl]phenyl}-2-(pyridin-3-yl)-1,3-benzothiazol-6-amine], the chromatographic logP [2] was 3.07.
Work on `Cc1cc(F)c(Nc2ccc3nc(-c4cccnc4)sc3c2)cc1[S+]([O-])CC(F)(F)F` (centres unmarked) [compound 21, N-{2-Fluoro-4-methyl-5-[(2,2,2-trifluoroethyl)sulphinyl]phenyl}-2-(pyridin-3-yl)-1,3-benzothiazol-6-amine] yielded a chromatographic logP [1] of 2.85 and a chromatographic logP [2] of 2.9.
With `CCSc1ccccc1Nc1ccc2nc(-c3cccnc3)sc2c1` [compound 22] the “logP[a]” value [1] was 4.32 and the “logP[b]” value [2] was 4.44.
With `CC[S+]([O-])c1ccccc1Nc1ccc2nc(-c3cccnc3)sc2c1` (centres unmarked) [compound 23] the “logP[a]” value [1] was 2.25 and the “logP[b]” value [2] was 2.24.
In the case of `c1ccc(Nc2ccc3nc(-c4cccnc4)sc3c2)nc1` [compound 24, N-(Pyridin-2-yl)-2-(pyridin-3-yl)-1,3-benzothiazol-6-amine], the chromatographic logP [1] is reported as 1.04 and the chromatographic logP [2] is reported as 2.47.
In the case of `c1cncc(-c2nc3ccc(-n4cccn4)cc3s2)c1` [compound 26], the “logP[b]” value [2] is reported as 2.2.
`c1cncc(-c2nc3ccc(-n4cncn4)cc3s2)c1` [compound 31, 2-(Pyridin-3-yl)-6-(1H-1,2,4-triazol-1-yl)-1,3-benzothiazole] showed a chromatographic logP [2] of 1.63.
In the case of `O=C(NCC(F)(F)F)c1ccc2nc(-c3cccnc3)sc2c1` [compound 32, 2-(Pyridin-3-yl)-N-(2,2,2-trifluoroethyl)-1,3-benzothiazole-6-carboxamide], the pest or weed control at 500 g/ha (Myzus persicae) is reported as 100% and the chromatographic logP [1] is reported as 1.96.
For `O=C(NCc1ccccn1)c1ccc2nc(-c3cccnc3)sc2c1` [compound 33, 2-(Pyridin-3-yl)-N-(pyridin-2-ylmethyl)-1,3-benzothiazole-6-carboxamide], the pest or weed control at 500 g/ha (Myzus persicae) was 100% and the chromatographic logP [1] was 1.15.
In the case of `Cn1ccc(-c2ccc3nc(-c4cccnc4)sc3c2)n1` [compound 36], the “logP[a]” value [1] is reported as 2.05 and the “logP[b]” value [2] is reported as 2.03.
With `CSCn1cc(-c2ccc3nc(-c4cccnc4)sc3c2)cn1` [compound 38, 6-{1-[(Methylsulphanyl)methyl]-1H-pyrazol-4-yl}-2-(pyridin-3-yl)-1,3-benzothiazole] the chromatographic logP [1] was 2.4 and the chromatographic logP [2] was 2.54.
With `Cn1cncc(-c2ccc3nc(-c4cccnc4)sc3c2)c1=O` [compound 43] the “logP[a]” value [1] was 1.34 and the “logP[b]” value [2] was 1.51.
In the case of `COc1nn(-c2ccc3nc(-c4cccnc4)sc3c2)c(=O)n1C` [compound 50], the “efficacy (aphids killed)” value (Myzus persicae) is reported as 90%.
For `Cn1c(OCC(F)(F)F)nn(-c2ccc3nc(-c4cccnc4)sc3c2)c1=O` [compound 53], the “logP[a]” value [1] was 2.8 and the “logP[b]” value [2] was 2.88.
For `Cn1c(SCC(F)(F)F)nn(-c2ccc3nc(-c4cccnc4)sc3c2)c1=O` [compound 54], the “logP[a]” value [1] was 2.84 and the “logP[b]” value [2] was 2.91.
In the case of `CSCc1nn(-c2ccc3nc(-c4cccnc4)sc3c2)c(=O)n1C` [compound 55, 4-Methyl-5-[(methylsulphanyl)methyl]-2-[2-(pyridin-3-yl)-1,3-benzothiazol-6-yl]-2,4-dihydro-3H-1,2,4-triazol-3-one], the chromatographic logP [1] is reported as 2.23 and the chromatographic logP [2] is reported as 2.36.
With `CNC(=O)c1ccc2nc(-c3cccnc3)sc2c1` [compound 57] the “efficacy (aphids killed)” value (Myzus persicae) was 100% and the “logP[a]” value [1] was 1.22.
In the case of `CNC(=O)c1ccc2nc(-c3cncc(F)c3)sc2c1` [compound 58], the “efficacy (aphids killed)” value (Myzus persicae) is reported as 100% and the “logP[a]” value [1] is reported as 1.67.
For `CN(C)C(=O)c1ccc2nc(-c3cccnc3)sc2c1` [compound 59], the “efficacy (aphids killed)” value (Myzus persicae) was 100% and the “logP[a]” value [1] was 1.42.
For `CN(C)C(=O)c1ccc2nc(-c3cncc(F)c3)sc2c1` [compound 60], the “efficacy (aphids killed)” value (Myzus persicae) was 100% and the “logP[a]” value [1] was 1.9.
For `CCN(C)C(=O)c1ccc2nc(-c3cccnc3)sc2c1` [compound 61], the “efficacy (aphids killed)” value (Myzus persicae) was 100% and the “logP[a]” value [1] was 1.71.
In the case of `CCN(C)C(=O)c1ccc2nc(-c3cncc(F)c3)sc2c1` [compound 62], the “efficacy (aphids killed)” value (Myzus persicae) is reported as 100% and the “logP[a]” value [1] is reported as 2.2.
In the case of `O=C(NCC(F)(F)F)c1ccc2nc(-c3cccnc3)sc2c1` [compound 63], the “logP[a]” value [1] is reported as 2.02.
With `O=C(NCC(F)(F)F)c1ccc2nc(-c3cncc(F)c3)sc2c1` [compound 64] the “efficacy (aphids killed)” value (Myzus persicae) was 90% and the “logP[a]” value [1] was 2.51.
In the case of `CON(C)C(=O)c1ccc2nc(-c3cccnc3)sc2c1` [compound 65], the “efficacy (aphids killed)” value (Myzus persicae) is reported as 100% and the “logP[a]” value [1] is reported as 1.64.
In the case of `CON(C)C(=O)c1ccc2nc(-c3cncc(F)c3)sc2c1` [compound 66], the “efficacy (aphids killed)” value (Myzus persicae) is reported as 100% and the “logP[a]” value [1] is reported as 2.16.
With `CC(F)(F)CNC(=O)c1ccc2nc(-c3cncc(F)c3)sc2c1` [compound 68] the “efficacy (aphids killed)” value (Myzus persicae) was 100% and the “logP[a]” value [1] was 2.39.
Compound `CSCCNC(=O)c1ccc2nc(-c3cccnc3)sc2c1` [compound 69, N-[2-(Methylsulphanyl)ethyl]-2-(pyridin-3-yl)-1,3-benzothiazole-6-carboxamide] has a pest or weed control at 500 g/ha (Myzus persicae) of 90% and a chromatographic logP [1] of 1.83.
For `CSCCNC(=O)c1ccc2nc(-c3cncc(F)c3)sc2c1` [compound 70], the “efficacy (aphids killed)” value (Myzus persicae) was 90% and the “logP[a]” value [1] was 2.31.
In the case of `CS(=O)(=O)CCNC(=O)c1ccc2nc(-c3cncc(F)c3)sc2c1` [compound 72], the “efficacy (aphids killed)” value (Myzus persicae) is reported as 90%.
For `O=C(Nc1cccc(SC(F)(F)F)c1)c1ccc2nc(-c3cccnc3)sc2c1` [compound 73], the “logP[a]” value [1] was 3.76.
With `O=C(Nc1cccc(SC(F)(F)F)c1)c1ccc2nc(-c3cncc(F)c3)sc2c1` [compound 74, 2-(5-Fluoropyridin-3-yl)-N-{3-[(trifluoromethyl)sulphanyl]phenyl}-1,3-benzothiazole-6-carboxamide] the chromatographic logP [1] was 4.29.
`O=C(Nc1cccc([S+]([O-])C(F)(F)F)c1)c1ccc2nc(-c3cncc(F)c3)sc2c1` (centres unmarked) [compound 75, 2-(5-Fluoropyridin-3-yl)-N-{3-[(trifluoromethyl)sulphinyl]phenyl}-1,3-benzothiazole-6-carboxamide] gave a chromatographic logP [1] of 3.26.
Compound `CCC(=O)N(C)c1ccc2nc(-c3cccnc3)sc2c1` [compound 76, N-Methyl-N-[2-(pyridin-3-yl)-1,3-benzothiazol-6-yl]propanamide] has a chromatographic logP [1] of 1.84.
In the case of `CN(C(=O)C1CCS(=O)(=O)C1)c1ccc2nc(-c3cncc(F)c3)sc2c1` (centres unmarked) [compound 83], the “logP[a]” value [1] is reported as 1.94.
With `CN(C(=O)c1cccc(SC(F)(F)F)c1)c1ccc2nc(-c3cccnc3)sc2c1` [compound 84] the “logP[a]” value [1] was 3.24.
Compound `CN(C(=O)c1cccc(SC(F)(F)F)c1)c1ccc2nc(-c3cncc(F)c3)sc2c1` [compound 85, N-[2-(5-Fluoropyridin-3-yl)-1,3-benzothiazol-6-yl]-N-methyl-3-[(trifluoromethyl)sulphanyl]benzamide] has a chromatographic logP [1] of 3.88.
In the case of `O=C(Nc1ccc2nc(-c3cccnc3)sc2c1)c1cccc([S+]([O-])C(F)(F)F)c1` (centres unmarked) [compound 86], the “logP[a]” value [1] is reported as 2.63.
`O=C(Nc1ccc2nc(-c3cncc(F)c3)sc2c1)c1cccc([S+]([O-])C(F)(F)F)c1` (centres unmarked) [compound 87, N-[2-(5-Fluoropyridin-3-yl)-1,3-benzothiazol-6-yl]-3-[(trifluoromethyl)sulphinyl]benzamide] gave a chromatographic logP [1] of 3.27.

From patent US20170325459A1, “BICYCLIC COMPOUNDS AS PEST CONTROL AGENTS” (Bayer CropScience Aktiengesellschaft, priority 2014, published 2017)
